# In patent US8697696B2, “Triazole compounds II” (Roche Palo Alto LLC, priority 2010, dated 2014):
# Molecular target: human GABA A α5β3γ2 receptor (Homo sapiens (Human), UniProt P18507+P31644)
# Assay: [3H]flumazenil competition radioligand binding assay, human GABA A α5β3γ2 receptors in HEK293 cells
# Conditions: HEK293 cells expressing human receptors (transiently transfected); 0.5 nM [3H]flumazenil; means of two determinations; read-out: hKi GABA Aα5
# Description: The ability of compounds present invention to bind to GABA A receptor subtypes was determined by competition for [^3H]flumazenil (85 Ci/mmol; Roche) binding to HEK293 cells expressing rat (stably transfected) or human (transiently transfected) receptors of composition α1β2/3γ2, α2β3γ2, α3β3γ2 and α5β3γ2.
# Cell pellets were suspended in Krebs-tris buffer (4.8 mM KCl, 1.2 mM CaCl2, 1.2 mM MgCl2, 120 mM NaCl, 15 mM Tris; pH 7.5; binding assay buffer), homogenized by polytron for ca. 20 sec on ice and centrifuged for 60 min at 4° C. (50000 g; Sorvall, rotor: SM24=20000 rpm). The cell pellets were resuspended in Krebs-tris buffer and homogenized by polytron for ca. 15 sec on ice. Protein was measured (Bradford method, Bio-Rad) and aliquots of 1 mL were prepared and stored at −80° C.
# Assays were incubated to equilibrium for 1 hour at 4° C. and harvested onto GF/C uni-filters (Packard) by filtration using a Packard harvester and washing with ice-cold wash buffer (50 mM Tris; pH 7.5). After drying, filter-retained radioactivity was detected by liquid scintillation counting.
# Ki values were calculated using Excel-Fit (Microsoft) and are the means of two determinations.
# Representative test results, obtained by the above described assay measuring binding affinity to HEK293 cells expressing human (h) receptors, are shown in Table 1 below.
row,SMILES,Ki
1,"Cc1nc(/C=C/c2c(C)nnn2-c2ccc(F)cc2)sc1C(=O)NC(C)C [Example 9, 2-{(E)-2-[3-(4-Fluoro-phenyl)-5-methyl-3H-[1,2,3]triazol-4-yl]-vinyl}-4-methyl-thiazole-5-carboxylic acid isopropylamide]",6.8 nM
2,"Cc1nnn(-c2ccc(F)cc2)c1COc1cc(C(=O)NC2(C)COC2)n(C)n1 [Example 5, 5-[3-(4-Fluoro-phenyl)-5-methyl-3H-[1,2,3]triazol-4-ylmethoxy]-2-methyl-2H-pyrazole-3-carboxylic acid (3-methyl-oxetan-3-yl)-amide]",43.2 nM
3,"Cc1nc(/C=C/c2c(-c3ccc(F)cc3)nnn2C)sc1C(=O)NC(C)C [Example 6, 2-{(E)-2-[5-(4-Fluoro-phenyl)-3-methyl-3H-[1,2,3]triazol-4-yl]vinyl}-4-methyl-thiazole-5-carboxylic acid isopropylamide]",11.3 nM
4,"Cn1nnc(-c2ccc(F)cc2)c1COc1cc(C(=O)NC2CCOCC2)on1 [Example 1, 3-[5-(4-Fluoro-phenyl)-3-methyl-3H-[1,2,3]triazol-4-ylmethoxyl]isoxazole-5-carboxylic acid (tetrahydro-pyran-4-yl)-amide]",28.8 nM
5,"Cc1nnn(-c2ccc(F)cc2)c1COc1cc(C(=O)NN2CCOCC2)n(C)n1 [Example 4, 5-[3-(4-Fluoro-phenyl)-5-methyl-3H-[1,2,3]triazol-4-ylmethoxy]-2-methyl-2H-pyrazole-3-carboxylic acid morpholin-4-ylamide]",22.2 nM
6,"Cc1nnn(-c2ccc(F)cc2)c1COc1cc(C(=O)NC2CCOCC2)n(C)n1 [Example 3, 5-[3-(4-Fluoro-phenyl)-5-methyl-3H-[1,2,3]triazol-4-ylmethoxy]-2-methyl-2H-pyrazole-3-carboxylic acid (tetrahydro-pyran-4-yl)-amide]",15.7 nM
7,"Cn1nc(OCc2c(-c3ccc(F)cc3)nnn2C)cc1C(=O)NC1CCOCC1 [Example 2, 5-[5-(4-Fluoro-phenyl)-3-methyl-3H-[1,2,3]triazol-4-ylmethoxy]-2-methyl-2H-pyrazole-3-carboxylic acid (tetrahydro-pyran-4-yl)-amide]",45.3 nM
8,"Cc1nc(/C=C/c2c(-c3ccccn3)nnn2C)sc1C(=O)NC(C)C [Example 10, 4-Methyl-2-[(E)-2-(3-methyl-5-pyridin-2-yl-3H-[1,2,3]triazol-4-yl)-vinyl]-thiazole-5-carboxylic acid isopropylamide]",20.7 nM
